Data set [1] can be described thus: as series B (acyl azide from hydrazide, MeCN cosolvent), isolated after prep HPLC. The following applies: the molecule shown is the open-chain precursor, aq phosphate buffer (6 M GdmCl) diluted with 2 vol 50% MeCN/water, 4.0 mM, 2 steps.
Data set [2] in a line: as series A (acyl azide from hydrazide, biphasic EtOAc/buffer), isolated after prep HPLC. The following applies: 21-membered ring, aq phosphate buffer (6 M GdmCl) / EtOAc biphasic, 3.0 mM, 0.25 h, 2 steps.
The nature of data set [3]: head-to-tail lactamisation of unprotected peptide acyl azide (from C-terminal hydrazide, 20 equiv NaNO2, pH 3, -15 C, then NaHCO3 to pH ~7), biphasic EtOAc/buffer. Conditions: 21-membered ring, aq phosphate buffer (6 M GdmCl, 50 mM NaH2PO4, 1.5 mM EDTA) / EtOAc biphasic, 3.0 mM, 0.25 h, 2 steps.
Setting [4] is: from C=CC[C@H](NC(=O)[C@H](CC(C)C)NC(=O)[C@H](CC(C)C)N(C)C(=O)[C@H](C)NC(=O)[C@H](Cc1ccc(O)c([N+](=O)[O-])c1)NC(=O)[C@H](CC(C)C)N(C)C(=O)[C@@H](N)Cc1cn(C)c2ccccc12)C(=O)N=[N+]=[N-].
The mark [5] stands for this setting: from CC(C)C[C@H](NC(=O)[C@H](CC(C)C)N(C)C(=O)[C@H](C)NC(=O)[C@H](Cc1ccc(O)c([N+](=O)[O-])c1)NC(=O)[C@H](CC(C)C)N(C)C(=O)[C@H](C)N)C(=O)N[C@@H](Cc1ccccc1)C(=O)N=[N+]=[N-].
Setting [6] is: from C=CC[C@H](NC(=O)[C@H](CC(C)C)NC(=O)[C@H](CC(C)C)N(C)C(=O)[C@H](CO)NC(=O)[C@H](Cc1ccc(O)c([N+](=O)[O-])c1)NC(=O)[C@H](CC(C)C)N(C)C(=O)[C@@H](N)Cc1c[nH]c2ccccc12)C(=O)N=[N+]=[N-].

From PMC11191687 come the findings set out here.

Take `CC(C)C[C@H](NC(=O)[C@H](CCCN)NC(=O)[C@@H](NC(=O)[C@@H]1CCCN1C(=O)[C@@H](Cc1ccccc1)NC(=O)[C@H](CC(C)C)NC(=O)[C@H](CCCN)NC(=O)[C@@H](NC(=O)[C@@H]1CCCN1C(=O)[C@H](N)Cc1ccccc1)C(C)C)C(C)C)C(=O)N=[N+]=[N-]` [H-D-Phe-Pro-Val-Orn-Leu-D-Phe-Pro-Val-Orn-Leu-N3]: the ring closure, yield over several steps in data set [1] (30-membered ring) was found to be 63%.
In data set [1] (18-membered ring), `CC(=O)N[C@@H](Cc1ccccc1)C(=O)N[C@@H](CCCN)C(=O)N1CCC[C@H]1C(=O)N[C@H](Cc1ccc(O)cc1)C(=O)N[C@@H](Cc1c[nH]c2ccccc12)C(=O)N[C@@H](CCCNC(=N)N)C(=O)N=[N+]=[N-]` [Ac-Phe-Orn(cyclises via side chain)-Pro-D-Tyr-Trp-Arg-N3] had a ring closure, yield over several steps of 62%.
With `CC[C@H](C)[C@H](NC(=O)CNC(=O)[C@H](CO)NC(=O)[C@@H]1CCCN1C(=O)[C@@H](NC(=O)[C@@H]1CCCN1)C(C)C)C(=O)N[C@@H](Cc1ccccc1)C(=O)NCC(=O)N=[N+]=[N-]` [H-Pro-Val-Pro-Ser-Gly-Ile-Phe-Gly-N3], in data set [1] (24-membered ring), the ring closure, yield over several steps amounted to 42%.
In turn, `CC(C)C[C@H](NC(=O)[C@H](Cc1ccc(O)cc1)NC(=O)[C@@H]1CCCN1C(=O)CN)C(=O)N[C@@H](C)C(=O)N=[N+]=[N-]` [H-Gly-Pro-Tyr-Leu-Ala-N3] showed a ring closure, yield over several steps in data set [1] (15-membered ring) of 51%.
As to `CC(C)C[C@H](NC(=O)[C@H](CCCN)NC(=O)[C@@H](NC(=O)[C@H](Cc1ccc(O)cc1)NC(=O)[C@H](CCC(N)=O)NC(=O)[C@H](CC(N)=O)NC(=O)[C@@H](Cc1ccccc1)NC(=O)[C@H](Cc1ccccc1)NC(=O)[C@@H]1CCCN1C(=O)[C@H](N)Cc1ccccc1)C(C)C)C(=O)N=[N+]=[N-]` [H-D-Phe-Pro-Phe-D-Phe-Asn-Gln-Tyr-Val-Orn-Leu-N3], the ring closure, yield over several steps in data set [1] (30-membered ring, 0.25 h) was 68%.
Molecule `C=CC[C@@H]1NC(=O)[C@H](CC(C)C)NC(=O)[C@H](CC(C)C)N(C)C(=O)[C@H](C)NC(=O)[C@H](Cc2ccc(O)c([N+](=O)[O-])c2)NC(=O)[C@H](CC(C)C)N(C)C(=O)[C@H](Cc2cn(C)c3ccccc23)NC1=O` [H-Trp(1-Me)-N-Me-Leu-Tyr(3-NO2)-Ala-N-Me-Leu-Leu-allylGly-N3] returned a ring closure, yield over several steps in data set [2] (setting [4]) of 58%. Further, the ring closure, conversion by HPLC in data set [3] (setting [4]) is 93%.
Regarding `CSCC[C@H](NC(=O)[C@@H](NC(=O)[C@H](CC(C)C)NC(=O)CNC(=O)[C@@H]1CCCN1C(=O)[C@@H](NC(=O)CNC(=O)[C@@H](N)Cc1ccccc1)C(C)C)C(C)C)C(=O)N=[N+]=[N-]` [H-Phe-Gly-Val-Pro-Gly-Leu-Val-Met-N3], in data set [1] (24-membered ring), the ring closure, yield over several steps came to 12%.
Take `CC(C)C[C@@H]1NC(=O)[C@H](CC(C)C)N(C)C(=O)[C@H](C)NC(=O)[C@H](Cc2ccc(O)c([N+](=O)[O-])c2)NC(=O)[C@H](CC(C)C)N(C)C(=O)[C@H](C)NC(=O)[C@H](Cc2ccccc2)NC1=O` [H-Ala-N-Me-Leu-Tyr(3-NO2)-Ala-N-Me-Leu-Leu-Phe-N3]: the ring closure, yield over several steps in data set [2] (setting [5]) is 40%. In addition, the ring closure, conversion by HPLC in data set [3] (setting [5]) was found to be 88%.
`C=CC[C@@H]1NC(=O)[C@H](CC(C)C)NC(=O)[C@H](CC(C)C)N(C)C(=O)[C@H](CO)NC(=O)[C@H](Cc2ccc(O)c([N+](=O)[O-])c2)NC(=O)[C@H](CC(C)C)N(C)C(=O)[C@H](Cc2c[nH]c3ccccc23)NC1=O` [H-Trp-N-Me-Leu-Tyr(3-NO2)-Ser-N-Me-Leu-Leu-allylGly-N3] gave a ring closure, yield over several steps in data set [2] (setting [6]) of 42%. Further, the ring closure, conversion by HPLC in data set [3] (setting [6]) is 84%.
For the molecule `CCCCC(C)CCC(=O)N[C@@H](CCN)C(=O)N[C@H](C(=O)N[C@@H](CCN)C(=O)N[C@@H](CCN)C(=O)N[C@@H](CCN)C(=O)N[C@H](CC(C)C)C(=O)N[C@@H](CC(C)C)C(=O)N[C@@H](CCN)C(=O)N[C@@H](CCN)C(=O)N[C@H](C(=O)N=[N+]=[N-])[C@@H](C)O)[C@@H](C)O` (stereo partly shown), the ring closure, yield over several steps in data set [1] (23-membered ring) was found to be 3%.
